Measured values published in ChEMBL document CHEMBL1139729, “Separation of anti-angiogenic and cytotoxic activities of borrelidin by modification at the C17 side chain” (Bioorg Med Chem Lett, 2006).
The source made the active and inactive calls. No cut-off for these calls is given here.

Legend:
SF-268 [1] = assay: Antiproliferative activity against SF268 cell line at 3 uM; format: functional; conditions: Homo sapiens
[2] = Antiproliferative activity against 251L cell line at 3 uM; format: functional; conditions: Homo sapiens
NCI-H460 [3] = assay: Antiproliferative activity against H460 cell line at 3 uM; format: functional; conditions: Homo sapiens
MCF7 [4] = assay: Antiproliferative activity against MCF7 cell line at 3 uM; format: functional; conditions: Homo sapiens
[5] = Antiproliferative activity against MDA231 cell line at 3 uM; format: functional; conditions: Homo sapiens, MDA-MB-231
[6] = Antiproliferative activity against MDA467 cell line at 3 uM; format: functional; conditions: Homo sapiens
[7] = Antiproliferative activity against 394NL cell line at 3 uM; format: functional; conditions: Homo sapiens
OVCAR-3 [8] = assay: Antiproliferative activity against OVCAR-3 cell line at 3 uM; format: functional; conditions: Homo sapiens
DU-145 [9] = assay: Antiproliferative activity against DU145 cell line at 3 uM; format: functional; conditions: Homo sapiens
LNCaP [10] = assay: Antiproliferative activity against LNCAP cell line at 3 uM; format: functional; conditions: Homo sapiens
A498 [11] = assay: Antiproliferative activity against A498 cell line at 3 uM; format: functional; conditions: Homo sapiens
[12] = Antiproliferative activity against 1138L cell line at 3 uM; format: functional; conditions: Homo sapiens
SF-268 [13] = assay: Antiproliferative activity against SF268 cell line at 10 uM; format: functional; conditions: Homo sapiens
[14] = (§1) Antiproliferative activity against 251L cell line at 10 uM; format: functional; conditions: Homo sapiens; values are per cent of control
NCI-H460 [15] = assay: Antiproliferative activity against H460 cell line at 10 uM; format: functional; conditions: Homo sapiens
MCF7 [16] = assay: Antiproliferative activity against MCF7 cell line at 10 uM; format: functional; conditions: Homo sapiens
[17] = (§2) Antiproliferative activity against MDA231 cell line at 10 uM; format: functional; conditions: Homo sapiens, MDA-MB-231; values are per cent of control
[18] = (§3) Antiproliferative activity against MDA467 cell line at 10 uM; format: functional; conditions: Homo sapiens; values are per cent of control
[19] = (§4) Antiproliferative activity against 394NL cell line at 10 uM; format: functional; conditions: Homo sapiens; values are per cent of control
OVCAR-3 [20] = assay: Antiproliferative activity against OVCAR-3 cell line at 10 uM; format: functional; conditions: Homo sapiens
DU-145 [21] = assay: Antiproliferative activity against DU145 cell line at 10 uM; format: functional; conditions: Homo sapiens
LNCaP [22] = assay: Antiproliferative activity against LNCAP cell line at 10 uM; format: functional; conditions: Homo sapiens
A498 [23] = assay: Antiproliferative activity against A498 cell line at 10 uM; format: functional; conditions: Homo sapiens
[24] = (§5) Antiproliferative activity against 1138L cell line at 10 uM; format: functional; conditions: Homo sapiens; values are per cent of control
HUVEC [25] = assay: Growth inhibition in HUVEC; format: functional, cell-based; conditions: Homo sapiens
[26] = Antiproliferative activity against NCI60 cell line; format: functional, cell-based; conditions: Homo sapiens
[27] = Maximum tolerated dose in iv dosed nude mouse; format: ADME, organism-based; conditions: in vivo
HUVEC [28] = assay: Inhibition of HUVEC tubule formation assessed as number of branches at 0.75 pM; format: functional, Homo sapiens
HUVEC [29] = assay: Inhibition of HUVEC tubule formation assessed as number of branches at 0.25 pM; format: functional, Homo sapiens
HUVEC [30] = assay: Inhibition of HUVEC tubule formation assessed as length of branches at 0.75 pM; format: functional, Homo sapiens
HUVEC [31] = assay: Inhibition of HUVEC tubule formation assessed as length of branches at 0.25 pM; format: functional, Homo sapiens
HUVEC [32] = assay: Inhibition of HUVEC tubule formation assessed as number of branches at 75 pM; format: functional, Homo sapiens
HUVEC [33] = assay: Inhibition of HUVEC tubule formation assessed as number of branches at 25 pM; format: functional, Homo sapiens
HUVEC [34] = assay: Inhibition of HUVEC tubule formation assessed as length of branches at 75 pM; format: functional, Homo sapiens
HUVEC [35] = assay: Inhibition of HUVEC tubule formation assessed as length of branches at 25 pM; format: functional, Homo sapiens
HUVEC [36] = assay: Inhibition of HUVEC tubule formation assessed as number of branches at 10 nM; format: functional, Homo sapiens
HUVEC [37] = assay: Inhibition of HUVEC tubule formation assessed as number of branches at 100 nM; format: functional, Homo sapiens
HUVEC [38] = assay: Inhibition of HUVEC tubule formation assessed as length of branches at 10 nM; format: functional, Homo sapiens
HUVEC [39] = assay: Inhibition of HUVEC tubule formation assessed as length of branches at 100 nM; format: functional, Homo sapiens
Homo sapiens [40] = species on record: Homo sapiens; assay: as §1; format: functional
MDA-MB-231 = assay: as §2; format: functional; conditions: Homo sapiens
Homo sapiens [41] = species on record: Homo sapiens; assay: as §3; format: functional
Homo sapiens [42] = species on record: Homo sapiens; assay: as §4; format: functional
Homo sapiens [43] = species on record: Homo sapiens; assay: as §5; format: functional

Row | SMILES | inhibition at 10 µM (SF-268 [13]) [%] | growth, % of control at 10 µM [14] [%] | inhibition at 10 µM (NCI-H460 [15]) [%] | inhibition at 10 µM (MCF7 [16]) [%] | growth, % of control at 10 µM [17] [%] | growth, % of control at 10 µM [18] [%] | growth, % of control at 10 µM [19] [%] | inhibition at 10 µM (OVCAR-3 [20]) [%] | inhibition at 10 µM (DU-145 [21]) [%] | inhibition at 10 µM (LNCaP [22]) [%] | inhibition at 10 µM (A498 [23]) [%] | growth, % of control at 10 µM [24] [%] | IC50 (HUVEC [25]) [nM] | IC50 [26] [nM] | further results
1 | COc1cccc2c1C(=O)c1c(O)c3c(c(O)c1C2=O)C[C@@](O)(C(=O)CO)C[C@@H]3O[C@H]1C[C@H](N)[C@H](O)[C@H](C)O1 [DOXORUBICIN] | – | – | – | – | – | – | – | – | – | – | – | – | – | – | inhibition at 3 µM (SF-268 [1]): 9%; inhibition at 3 µM [2]: 15%; inhibition at 3 µM (NCI-H460 [3]): 3%; inhibition at 3 µM (MCF7 [4]): 12%; inhibition at 3 µM [5]: 11%; inhibition at 3 µM [6]: 7%; inhibition at 3 µM [7]: 6%; inhibition at 3 µM (OVCAR-3 [8]): 10%; inhibition at 3 µM (DU-145 [9]): 5%; inhibition at 3 µM (LNCaP [10]): 10%; inhibition at 3 µM (A498 [11]): 11%; inhibition at 3 µM [12]: 6%
2 | C[C@@H]1C[C@H](C)C[C@H](C)[C@@H](O)CC(=O)O[C@H](C[C@@H](C)C(=O)O)C/C=C/C=C(/C#N)[C@H](O)[C@@H](C)C1 | 14 | 32 | 49 | 16 | 26 | 25 | 9 | 29 | 68 | 34 | 30 | 6 | – | – | –
3 | C[C@@H]1C[C@H](C)C[C@H](C)[C@@H](O)CC(=O)O[C@H]([C@@H]2CC[C@H]2C(=O)O)C/C=C/C=C(/C#N)[C@H](O)[C@@H](C)C1 | 4 | 9 | 7 | 9 | 8 | 6 | 3 | 16 | 16 | 9 | 9 | 3 | 500 | 300 | MTD [27]: > 130 mg/kg; Activity (HUVEC [28]): 40; Activity (HUVEC [29]): 38; Activity (HUVEC [30]): 63; Activity (HUVEC [31]): 65
4 | CS[C@H](C[C@@H]1C/C=C/C=C(/C#N)[C@H](O)[C@@H](C)C[C@H](C)C[C@H](C)C[C@H](C)[C@@H](O)CC(=O)O1)C(=O)O | 54 | 67 | 79 | 48 | 81 | 59 | 64 | 102 | 75 | 59 | 68 | 42 | – | – | –
5 | C[C@@H]1C[C@H](C)C[C@H](C)[C@@H](O)CC(=O)O[C@H]([C@H](C)[C@H](C)C(=O)O)C/C=C/C=C(/C#N)[C@H](O)[C@@H](C)C1 | 3 | 12 | 3 | 9 | 7 | 7 | 4 | 6 | 7 | 7 | 9 | 3 | 1 | 70 | Activity (HUVEC [32]): 246; Activity (HUVEC [33]): 116; Activity (HUVEC [34]): 63; Activity (HUVEC [35]): 62
6 | C[C@@H]1C[C@H](C)C[C@H](C)[C@@H](O)CC(=O)O[C@H](C[C@H](C)C(=O)O)C/C=C/C=C(/C#N)[C@H](O)[C@@H](C)C1 | 57 | 81 | 84 | 76 | 90 | 62 | 67 | 91 | 74 | 92 | 78 | 56 | – | – | –
7 | C[C@@H]1C[C@H](C)C[C@H](C)[C@@H](O)CC(=O)O[C@H]([C@H](C)CC(=O)O)C/C=C/C=C(/C#N)[C@H](O)[C@@H](C)C1 | 13 | 26 | 38 | 12 | 20 | 15 | 9 | 32 | 55 | 24 | 21 | 5 | – | – | –
8 | C[C@@H]1C[C@H](C)C[C@H](C)[C@@H](O)CC(=O)O[C@H]([C@@H]2CCC[C@H]2C(=O)O)C/C=C/C=C(/C#N)[C@H](O)[C@@H](C)C1 [BORRELIDIN] | 3 | 8 | 4 | 13 | 12 | 6 | 2 | 11 | 5 | 7 | 8 | 2 | 0.5 | 20 | Activity (HUVEC [36]): 230; Activity (HUVEC [37]): 233; Activity (HUVEC [38]): 64; Activity (HUVEC [39]): 65
9 | C/C1=C/C=C/C[C@@H]([C@@H]2CCC[C@H]2C(=O)O)OC(=O)C[C@H](O)[C@@H](C)C[C@@H](C)C[C@@H](C)C[C@H](C)[C@H]1O | – | – | – | – | – | – | – | – | – | – | – | – | – | – | Activity (SF-268 [13]): inactive; Activity (Homo sapiens [40]): inactive; Activity (NCI-H460 [15]): inactive; Activity (MCF7 [16]): inactive; Activity (MDA-MB-231): inactive; Activity (Homo sapiens [41]): inactive; Activity (Homo sapiens [42]): inactive; Activity (OVCAR-3 [20]): inactive; Activity (DU-145 [21]): inactive; Activity (LNCaP [22]): inactive; Activity (A498 [23]): inactive; Activity (Homo sapiens [43]): inactive; Activity (HUVEC [25]): inactive
